Test results as given in ChEMBL document CHEMBL1137031, “Synthesis and antibacterial activity of C-6 carbamate ketolides, a novel series of orally active ketolide antibiotics” (2004).
Values after ≈ are worked out from the molar mass of the structure shown.

How the values were obtained:
Staphylococcus aureus [1] = experiment: Minimum inhibitory concentration against Staphylococcus aureus OC4172; type: functional
Streptococcus pneumoniae [2] = experiment: Minimum inhibitory concentration against Streptococcus pneumoniae OC4421
Mus musculus [3] = experiment: Percent survival of Staphylococcus aureus infected murine was tested after peroral injection of 20 mg/kg dose; type: functional; settings: route oral
Streptococcus pneumoniae [4] = experiment: Minimum inhibitory concentration against Streptococcus pneumoniae OC9132
[5] = tested on: Staphylococcus haemolyticus; experiment: Minimum inhibitory concentration against Staphylococcus haemolyticus OC3882
Staphylococcus aureus [6] = experiment: Minimum inhibitory concentration against Staphylococcus aureus OC4172 in presence of mouse serum; type: functional
Streptococcus pneumoniae [7] = experiment: Minimum inhibitory concentration against Streptococcus pneumoniae OC4051
Haemophilus influenzae = experiment: Minimum inhibitory concentration against Haemophilus influenzae OC4482
Mus musculus [8] = experiment: Effective dose against Staphylococcus aureus infected murine was tested after subcutaneous injection; type: functional; settings: sc
Mus musculus [9] = species on record: Mus musculus; experiment: Effective dose against Staphylococcus aureus infected murine was tested after peroral injection; type: functional
[10] = tested on: Staphylococcus haemolyticus; experiment: Minimum inhibitory concentration against Staphylococcus haemolyticus OC4545
Mus musculus [11] = experiment: Percent survival of Staphylococcus aureus infected murine was tested after subcutaneous injection of 10 mg/kg dose; type: functional; settings: sc

| Structure (SMILES) | MIC (Staphylococcus aureus [1]) | MIC (Streptococcus pneumoniae [2]) | survival at 20 mg/kg (Mus musculus [3]) | MIC (Streptococcus pneumoniae [4]) | MIC [5] | MIC (Staphylococcus aureus [6]) | MIC (Streptococcus pneumoniae [7]) | MIC (Haemophilus influenzae) | ED50 (Mus musculus [8]) | ED50 (Mus musculus [9]) | MIC [10] | survival at 10 mg/kg (Mus musculus [11]) |
| --- | --- | --- | --- | --- | --- | --- | --- | --- | --- | --- | --- | --- |
| CC[C@H]1OC(=O)C(C)C(=O)[C@H](C)[C@@H](O[C@@H]2O[C@H](C)C[C@H](N(C)C)[C@H]2O)[C@](C)(OC(=O)N/C=C/c2ccc(-c3cnccn3)cc2)C[C@@H](C)C(=O)[C@H](C)[C@H]2NC(=O)O[C@@]21C (some centres not stated) | 0.12 mg/L (≈ 0.146 µM) | 0.12 mg/L (≈ 0.146 µM) | 62% | 0.03 mg/L (≈ 0.0365 µM) | 0.25 mg/L (≈ 0.304 µM) | 0.25 mg/L | 0.06 mg/L (≈ 0.073 µM) | 4 mg/L (≈ 4.87 µM) | 4.8 mg/kg | 17 mg/kg | > 16 mg/L | 100% |
| CC[C@H]1OC(=O)C(C)C(=O)[C@H](C)[C@@H](O[C@@H]2O[C@H](C)C[C@H](N(C)C)[C@H]2O)[C@](C)(OC(=O)N/C=C/c2ccc(-c3ccncc3)cc2)C[C@@H](C)C(=O)[C@H](C)[C@H]2NC(=O)O[C@@]21C (some centres not stated) | 0.5 mg/L (≈ 0.609 µM) | 0.12 mg/L (≈ 0.146 µM) | – | 0.03 mg/L (≈ 0.0365 µM) | 2 mg/L (≈ 2.44 µM) | 2 mg/L | 0.5 mg/L (≈ 0.609 µM) | 8 mg/L (≈ 9.74 µM) | – | – | > 16 mg/L | – |
| CC[C@H]1OC(=O)C(C)C(=O)[C@H](C)[C@@H](O[C@@H]2O[C@H](C)C[C@H](N(C)C)[C@H]2O)[C@](C)(OC(N)=O)C[C@@H](C)C(=O)[C@H](C)[C@H]2NC(=O)O[C@@]21C (some centres not stated) | 4 mg/L (≈ 6.23 µM) | 2 mg/L (≈ 3.12 µM) | – | 2 mg/L (≈ 3.12 µM) | > 16 mg/L | 1 mg/L | > 16 mg/L | 2 mg/L (≈ 3.12 µM) | – | – | > 16 mg/L | – |
| CC[C@H]1OC(=O)C(C)C(=O)[C@H](C)[C@@H](O[C@@H]2O[C@H](C)C[C@H](N(C)C)[C@H]2O)[C@](C)(OC(=O)N/C=C/c2ccc(-c3ccccn3)cc2)C[C@@H](C)C(=O)[C@H](C)[C@H]2NC(=O)O[C@@]21C (some centres not stated) | 0.12 mg/L (≈ 0.146 µM) | 0.06 mg/L (≈ 0.0731 µM) | 20% | 0.03 mg/L (≈ 0.0365 µM) | 0.12 mg/L (≈ 0.146 µM) | 0.5 mg/L | 0.06 mg/L (≈ 0.0731 µM) | 4 mg/L (≈ 4.87 µM) | – | – | > 16 mg/L | 80% |
| CC[C@H]1OC(=O)[C@H](C)C(=O)[C@H](C)[C@@H](O[C@@H]2O[C@H](C)C[C@H](N(C)C)[C@H]2O)[C@](C)(OC)C[C@@H](C)C(=O)[C@H](C)[C@H]2N(CCCCn3cnc(-c4cccnc4)c3)C(=O)O[C@]12C [TELITHROMYCIN] | 0.12 mg/L (≈ 0.148 µM) | 0.12 mg/L (≈ 0.148 µM) | – | ≤ 0.01 mg/L | 0.25 mg/L (≈ 0.308 µM) | 0.5 mg/L | 0.06 mg/L (≈ 0.0739 µM) | 2 mg/L (≈ 2.46 µM) | 4.4 mg/kg | 15 mg/kg | > 16 mg/L | – |
| CC[C@H]1OC(=O)C(C)C(=O)[C@H](C)[C@@H](O[C@@H]2O[C@H](C)C[C@H](N(C)C)[C@H]2O)[C@](C)(OC(=O)N/C=C/c2ccc(-n3ccnc3)cc2)C[C@@H](C)C(=O)[C@H](C)[C@H]2NC(=O)O[C@@]21C (some centres not stated) | 0.12 mg/L (≈ 0.148 µM) | 0.25 mg/L (≈ 0.309 µM) | 0% | ≤ 0.01 mg/L | 1 mg/L (≈ 1.23 µM) | 0.25 mg/L | 0.12 mg/L (≈ 0.148 µM) | 4 mg/L (≈ 4.94 µM) | – | – | > 16 mg/L | 60% |
| CC[C@H]1OC(=O)C(C)C(=O)[C@H](C)[C@@H](O[C@@H]2O[C@H](C)C[C@H](N(C)C)[C@H]2O)[C@](C)(OC(=O)Nc2ccccc2)C[C@@H](C)C(=O)[C@H](C)[C@H]2NC(=O)O[C@@]21C (some centres not stated) | 2 mg/L (≈ 2.79 µM) | 0.06 mg/L (≈ 0.0836 µM) | – | 0.03 mg/L (≈ 0.0418 µM) | > 16 mg/L | 1 mg/L | 8 mg/L (≈ 11.1 µM) | 8 mg/L (≈ 11.1 µM) | – | – | > 16 mg/L | – |
| CC[C@H]1OC(=O)C(C)C(=O)[C@H](C)[C@@H](O[C@@H]2O[C@H](C)C[C@H](N(C)C)[C@H]2O)[C@](C)(OC(=O)N/C=C/c2ccc(-c3ccccc3)cc2)C[C@@H](C)C(=O)[C@H](C)[C@H]2NC(=O)O[C@@]21C (some centres not stated) | 0.5 mg/L (≈ 0.61 µM) | 0.25 mg/L (≈ 0.305 µM) | – | 0.06 mg/L (≈ 0.0732 µM) | 1 mg/L (≈ 1.22 µM) | 2 mg/L | 0.5 mg/L (≈ 0.61 µM) | 8 mg/L (≈ 9.76 µM) | – | – | > 16 mg/L | – |
| CC[C@H]1OC(=O)C(C)C(=O)[C@H](C)[C@@H](O[C@@H]2O[C@H](C)C[C@H](N(C)C)[C@H]2O)[C@](C)(OC(=O)N/C=C/c2ccc(-c3cccnc3)cc2)C[C@@H](C)C(=O)[C@H](C)[C@H]2NC(=O)O[C@@]21C (some centres not stated) | 0.25 mg/L (≈ 0.305 µM) | 0.25 mg/L (≈ 0.305 µM) | – | 0.03 mg/L (≈ 0.0365 µM) | 1 mg/L (≈ 1.22 µM) | 1 mg/L | 0.12 mg/L (≈ 0.146 µM) | 4 mg/L (≈ 4.87 µM) | – | – | > 16 mg/L | – |
| CC[C@H]1OC(=O)C(C)C(=O)[C@H](C)[C@@H](O[C@@H]2O[C@H](C)C[C@H](N(C)C)[C@H]2O)[C@](C)(OC(=O)NCc2ccccc2)C[C@@H](C)C(=O)[C@H](C)[C@H]2NC(=O)O[C@@]21C (some centres not stated) | 4 mg/L (≈ 5.47 µM) | 0.25 mg/L (≈ 0.342 µM) | – | 1 mg/L (≈ 1.37 µM) | > 16 mg/L | 8 mg/L | 8 mg/L (≈ 10.9 µM) | 16 mg/L (≈ 21.9 µM) | – | – | > 16 mg/L | – |
| CC[C@H]1OC(=O)C(C)C(=O)[C@H](C)[C@@H](O[C@@H]2O[C@H](C)C[C@H](N(C)C)[C@H]2O)[C@](C)(OC(=O)N/C=C/c2ccc3cccnc3c2)C[C@@H](C)C(=O)[C@H](C)[C@H]2NC(=O)O[C@@]21C (some centres not stated) | 0.12 mg/L (≈ 0.151 µM) | 0.03 mg/L (≈ 0.0377 µM) | 0% | ≤ 0.01 mg/L | 0.25 mg/L (≈ 0.314 µM) | 0.5 mg/L | 0.03 mg/L (≈ 0.0377 µM) | 2 mg/L (≈ 2.52 µM) | – | – | > 16 mg/L | 40% |
| CC[C@H]1OC(=O)[C@H](C)[C@@H](O[C@H]2C[C@@](C)(OC)[C@@H](O)[C@H](C)O2)[C@H](C)[C@@H](O[C@@H]2O[C@H](C)C[C@H](N(C)C)[C@H]2O)[C@](C)(O)C[C@@H](C)C(=O)[C@H](C)[C@@H](O)[C@]1(C)O [ERYTHROMYCIN] | 0.5 mg/L (≈ 0.681 µM) | 4 mg/L (≈ 5.45 µM) | – | 0.06 mg/L (≈ 0.0818 µM) | > 16 mg/L | 0.06 mg/L | > 16 mg/L | 4 mg/L (≈ 5.45 µM) | – | – | > 16 mg/L | – |
| CC[C@H]1OC(=O)C(C)C(=O)[C@H](C)[C@@H](O[C@@H]2O[C@H](C)C[C@H](N(C)C)[C@H]2O)[C@](C)(OC(=O)N/C=C/c2ccccc2)C[C@@H](C)C(=O)[C@H](C)[C@H]2NC(=O)O[C@@]21C (some centres not stated) | 0.25 mg/L (≈ 0.336 µM) | 0.06 mg/L (≈ 0.0807 µM) | – | 0.06 mg/L (≈ 0.0807 µM) | 4 mg/L (≈ 5.38 µM) | 2 mg/L | 0.5 mg/L (≈ 0.672 µM) | 4 mg/L (≈ 5.38 µM) | – | – | > 16 mg/L | – |
| CC[C@H]1OC(=O)C(C)C(=O)[C@H](C)[C@@H](O[C@@H]2O[C@H](C)C[C@H](N(C)C)[C@H]2O)[C@](C)(OC(=O)N/C=C/c2ccc3ccccc3n2)C[C@@H](C)C(=O)[C@H](C)[C@H]2NC(=O)O[C@@]21C (some centres not stated) | 0.25 mg/L (≈ 0.314 µM) | 0.06 mg/L (≈ 0.0755 µM) | 25% | ≤ 0.01 mg/L | 0.25 mg/L (≈ 0.314 µM) | 0.5 mg/L | 0.03 mg/L (≈ 0.0377 µM) | 4 mg/L (≈ 5.03 µM) | – | – | > 16 mg/L | 75% |
| CC[C@H]1OC(=O)C(C)C(=O)[C@H](C)[C@@H](O[C@@H]2O[C@H](C)C[C@H](N(C)C)[C@H]2O)[C@](C)(OC(=O)NCCc2ccccc2)C[C@@H](C)C(=O)[C@H](C)[C@H]2NC(=O)O[C@@]21C (some centres not stated) | 1 mg/L (≈ 1.34 µM) | 0.12 mg/L (≈ 0.161 µM) | – | 0.25 mg/L (≈ 0.335 µM) | 4 mg/L (≈ 5.36 µM) | 2 mg/L | 2 mg/L (≈ 2.68 µM) | 8 mg/L (≈ 10.7 µM) | – | – | > 16 mg/L | – |
| CC[C@H]1OC(=O)C(C)C(=O)[C@H](C)[C@@H](O[C@@H]2O[C@H](C)C[C@H](N(C)C)[C@H]2O)[C@](C)(OC(=O)NCCCc2ccccc2)C[C@@H](C)C(=O)[C@H](C)[C@H]2NC(=O)O[C@@]21C (some centres not stated) | 2 mg/L (≈ 2.63 µM) | 0.12 mg/L (≈ 0.158 µM) | – | 0.06 mg/L (≈ 0.079 µM) | 2 mg/L (≈ 2.63 µM) | 8 mg/L | 1 mg/L (≈ 1.32 µM) | 16 mg/L (≈ 21.1 µM) | – | – | > 16 mg/L | – |
